Test results reported in patent US20090076012A1, “Modulation of pathogenicity” (priority 2002, published 2009).
pIC50: −log10 of the molar value. Read-outs that look alike come from different tables or passages of the source.

Tested on: bioluminescent sensor strain Escherichia coli MT102 (pSB403)
Assay: Biosensor assay: quorum sensing inhibition, bioluminescence of the sensor strain
Assay type: cell-based
Conditions: 3oxo-C6-HSL 100 nM, bioluminescence after 4 hours at 30° C.
Summary of the method: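 E. coli MT102 (pSB403) luxR/luxI-promoter–luxCDABE sensor, exponential culture in LB stimulated with 100 nM 3oxo-C6-HSL. Compounds added at eight concentrations; bioluminescence read after 4 h at 30° C. IC50 fitted from light reduction relative to no-inhibitor signal.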

SMILES	pIC50 (Escherichia coli, 4 h)	other results
O=C(NNC(=O)c1cc(Br)c(Br)s1)Nc1cccc(C(F)(F)F)c1 [Compound 104, 1-(4,5-Dibromo-thiophene-2-carbonyl)-4-(3-trifluoromethyl-phenyl)-semi-carbazide]	4.30 to 6.00	–
Cc1cc(C(=O)NNC(=O)c2cccs2)n(C)n1 [Compound 66, 2,5-Dimethyl-2H-pyrazole-3-carboxylic acid N′-(thiophene-2-carbonyl)-hydrazide]	< 4.00	–
CCCCCCC(=O)CC(=O)Nc1ccc(C(=O)OC)o1 [Compound 138, 5-(3-Oxo-nonanoylamino)-furan-2-carboxylic acid methyl ester]	< 4.00	–
O=C(NNC(=O)c1ccc(Br)s1)c1cccs1 [Compound 59, Thiophene-2-carboxylic acid N′-(5-bromo-thiophene-2-carbonyl)-hydrazide]	4.30 to 6.00	–
COC(=O)CCCC(=O)NNC(=O)c1ccc(C)s1 [Compound 88]	< 4.00	–
CCCCCCC(=O)CC(=O)Nc1ccn[nH]1 [Compound 113, 3-Oxo-nonanoic acid (2H-pyrazol-3-yl)-amide]	< 4.00	–
CCCCCCCCCC(=O)CC(=O)Nc1oc(C)c(C)c1C#N [Compound 137, 3-Oxododecanoic acid (3-cyano-4,5-dimethyl-furan-2-yl)-amide]	< 4.00	–
Cc1ccc(C(=O)NNC(=O)CCC2CCCC2)s1 [Compound 87, 5-Methyl-thiophene-2-carboxylic acid N′-(3-cyclopentyl-propionyl)-hydrazide]	4.30 to 6.00	–
CCCCCCC(=O)Nc1cc(-c2ccccc2)nn1C [Compound 17, Heptanoic acid (2-methyl-5-phenyl-2H-pyrazol-3-yl)-amide]	4.30 to 6.00	–
CCCCCCC(=O)CC(=O)Nc1sccc1C(=O)OC [Compound 121, 2-(3-Oxo-nonanoylamino)-thiophene-3-carboxylic acid methyl ester]	< 4.00	–
O=C(NNS(=O)(=O)c1ccc(Cl)s1)c1cccs1 [Compound 97, N′-(5-Chloro-thiophen-2-sulfonyl)-thiophene-2-carboxylic acid hydrazide]	4.30 to 6.00	–
Cc1ccc(C(=O)NNC(=O)c2sccc2Br)s1 [Compound 57, 3-Bromo-thiophene-2-carboxylic acid N′-(5-methyl-thiophene-2-carbonyl)-hydrazide]	4.30 to 6.00	–
CCn1nc(C)c(Br)c1C(=O)NNC(=O)c1ccc(Cl)s1 [Compound 73, 4-Bromo-2-ethyl-5-methyl-2H-pyrazole-3-carboxylic acid N′-(5-chloro-thiophene-2-carbonyl)-hydrazide]	–	pIC50: 4.30 to 6.00
CCCCCCCCCC(=O)CC(=O)Nc1sccc1C(=O)OC [Compound 122, Z(3-Oxo-dodecanoylamino)-thiophene-3-carboxylic acid methyl ester]	–	pIC50 (read-out: IC50): < 4.00
CCCCCCC(=O)NNC(=O)c1cccs1 [Compound 79, Thiophene-2-carboxylic acid N′-heptanoyl-hydrazide]	4.30 to 6.00	–
